From patent publication US10450258B2, “Substituted aromatic compounds for the treatment of pulmonary fibrosis, liver fibrosis, skin fibrosis and cardiac fibrosis” (PROMETIC PHARMA SMT LIMITED, priority 2013, dated 2019)
Entries after “also recorded” stand apart in the source; their conditions may differ.

Columns and labels:
[1] = test system: collagen 1 mRNA in HK-2 cells (epithelial cells); test: Inhibition of collagen mRNA in TGF-β-treated HK-2 epithelial cells; assay type: cell-based; conditions: Homo sapiens, HK-2, compound 0.5 mM
Description: (§1) CTGF, collagen 1 and α-SMA are fibrotic markers produced by activated fibroblasts and by epithelial cells that undergo to epithelial-mesenchymal transition (EMT).
(§2) Table 2: Percentage of inhibition of collagen in epithelial cells (HK2 cells) and fibroblasts (NHDF) and percentage of inhibition of α-SMA in fibroblasts (NRK-49F and NHDF) has been determined for several compounds according the invention. In all cases, the mRNA of collagen and α-SMA has been measured, and the inhibition was evaluated in presence of a respective concentration of the tested compound. The compounds have been tested at different concentrations [mM]. All compounds reduce the expression of collagen and α-SMA in HK-2, NHDF and NRK-49F cells.

[2] = test system: normal human dermal fibroblasts (NHDF); test: Scratch assay (migration and invasion) of EGF-stimulated NHDF; assay type: cell-based; conditions: mitomycin-treated NHDF, compound 0.5 mM, FIG. 26
Description: The next experiments (scratch assay, invasion/migration) were designed to determine the effect of Compound I on EGF-stimulated normal human dermal fibroblasts (NHDF). In summary, mitomycin-treated NHDF were stimulated with EGF and incubated in the presence or absence (control) of Compound I (0.5 mM). EGF stimulated fibroblast invasion into the scratch which is inhibited by Compound I (FIG. 26).

[3] = test system: α-SMA mRNA in NHDF cells; test: Inhibition of α-SMA mRNA in TGF-β-activated NHDF fibroblasts; assay type: cell-based; conditions: Homo sapiens, compound 0.5 mM
Description: as §1, §2

[4] = test system: bleomycin-induced pulmonary fibrosis mouse model; test: Bleomycin-induced pulmonary fibrosis mouse model: body weight and lung histology; assay type: in vivo, mouse (male C57BL6)
Description: Intratracheal instillation of the anticancer drug bleomycin into the mouse results in acute inflammation followed by a chronic fibrotic response. Therefore, evaluation of candidate antifibrotic drugs such as Compound I can be undertaken by treatment of the mice at appropriate time points and histologic, biochemical and cellular readouts may be used to monitor candidate drug efficacy in this model.
(§3) Male C57BL6 mice are administered intratracheal instillation of bleomycin sulphate (0.025 U) at day 0, randomized and administered Compound I (oral administration, 100 mg/kg and 200 mg/kg) on day 7 to day 20.
Lesions score was evaluated using HEP (Hemalun with Eosin/Ploxine) and Masson's trichrome staining. Lesions score was recorded as 1) Consolidation as shown by disrupted lung architecture (cellular and/or fibrosis) and 2) Alveolar wall as shown by thickness and shrinking outside of consolidated area.
(§4) It was therefore evaluated side-by-side with Compound I in the bleomycin-induced pulmonary fibrosis mouse model by the same protocol described in Example 4 above. Compound I (200 mg/kg) and pirfenidone (400 mg/kg) were orally administered either alone or in combination.
Lesions score was evaluated using HEP (Hemalun with Eosin/Ploxine) and Masson's trichrome staining and recorded as 1) Consolidation as shown by disrupted lung architecture (cellular and/or fibrosis), and 2) Alveolar wall as shown by thickness and shrinking outside of consolidated area.
The lesions score as determined by the percentage of leukocyte infiltration (inflammatory zone) multiplied by the percentage of collagen found in the leukocyte infiltrate was quantified by histomorphometry using Masson's trichrome staining.
Visual grading of pulmonary fibrosis was also determined according to Ashcroft's score. Briefly, the entire fields of each lung section were read by a blinded examiner, and each field was visually graded from 0 to 8. Criteria for grading lung fibrosis were as follows: Grade 0=normal lung; Grade 1=minimal fibrous thickening of alveolar or bronchiolar walls; Grade 3=moderate thickening of walls without obvious damage to lung architecture; Grade 5=increased fibrosis with definitive damage to lung structure and formation of fibrous bands or small fibrous masses; Grade 7=severe distortion of structure and large fibrous area; Grade 8=total fibrous obliteration of lung fields.

[5] = test system: heart fibrosis in 5/6 nephrectomized-catheterized rats; test: Heart fibrosis in 5/6 nephrectomized-catheterized (5/6-Nx) rats; assay type: in vivo, rat (male Sprague-Dawley); conditions: for hydroxyproline (collagen) content in heart: FIG. 31
Excerpt: Implantation of a femoral catheter increases the presence of heart fibrosis in our 5/6 nephrectomized (5/6-Nx) model and it was used to assess the effect of Compound I on heart fibrosis. In summary, male 6-week old Sprague-Dawley rats were subjected to 5/6-Nx or sham operations. Briefly, two-thirds of the left kidney was removed on day 0 followed by the right total nephrectomy on day 7. A catheter was implanted via the femoral vein on day 7. Sham operated rats underwent exposition of the kidneys and removal of the perirenal fat and were used as controls. Animals that underwent the sham operation were treated with vehicle (water) and were used as controls. On day 21, rats were randomized based on their glomerular filtration rate (GFR) results. 5/6-Nx animals were treated with three times a week intravenous administration of Compound I (10 mg/kg), or with daily oral administration with Compound I (200 mg/kg). Heart fibrosis was determined by the measurement of hydroxyproline (collagen content) and by histological evaluation (HPE and Masson's trichrome staining). As mentioned, implantation of catheter for intravenous administration of compounds in catheterized 5/6 nephrectomized animals is inducing heart fibrosis compare to oral treatment (no catheter). Oral treatment is identified herein with the expression “po” that means “per os”; intravenous administration is identified with the expression “iv” for “intravenous”. As exemplified in FIG. 27, 5/6-Nx rats have weak heart lesions. However, implantation of a catheter induced a significant increase (4 times) of heart lesions (fibrosis, necrosis and inflammation).

[6] = test system: TGF-β, CTGF, IL-23p19, IL-6, collagen 1, fibronectin (FN-1), collagen 3 mRNA in lung tissue; test: Real-time PCR of inflammatory and fibrotic marker mRNA in lung tissue, bleomycin-induced pulmonary fibrosis mouse model; assay type: in vivo, mouse (male C57BL6)
Description: as §3
Further analysis of the lung tissue was undertaken. CTGF, collagen 1 and IL-23p19 mRNA expression was quantified by real-time PCR.
as §4
In order to determine the effect of Compound I on pulmonary fibrosis, further analysis of the lung tissue was undertaken. TGF-β, CTGF, IL-23 and IL-6 mRNA expression was quantified by real-time PCR. […] Oral administration of pirfenidone had no effect on CTGF mRNA expression but decreased TGF-β, IL-23 and IL-6 mRNA expression. […]

Structure (SMILES): CCCCCc1cccc(CC(=O)[O-])c1.[Na+] [Compound I, Sodium Salt of 3-pentylphenylacetic acid]
- inhibition at 500 µM [1]: 86%
- EGF-stimulated fibroblast migration and invasion into the scratch [2]: reduction of the migration and invasion; also recorded: inhibited
- inhibition at 500 µM [3]: 99%
- body weight loss ([4]; oral 200 mg/kg, day 7 to day 20, FIG. 1): reduced this body weight loss
- recovery of the body weight loss ([4]; oral 100 and 200 mg/kg vs vehicle (Bleo), FIG. 1 legend): recovery of the body weight loss
- histological lesions score of lungs (HEP and Masson's trichrome) ([4]; oral 100 and 200 mg/kg, day 7 to day 20, FIG. 2): significant reduction of lesions; also recorded: reduced histological lesions in a dose-dependent manner
- lesions and fibrosis in lungs (photomicrographs) ([4]; oral 100 and 200 mg/kg, FIG. 3): reduced lesions and fibrosis in lungs
- lesions score: percentage of leukocyte infiltration multiplied by percentage of collagen in the leukocyte infiltrate (histomorphometry, Masson's trichrome) ([4]; oral Compound I 200 mg/kg, FIG. 9): significantly reduced
- percentage of lungs affected by bleomycin ([4]; oral, Compound I 200 mg/kg, pirfenidone 400 mg/kg, alone or combined, FIG. 7): lower
- histological lesion score of lungs (HEP and Masson's trichrome) ([4]; oral, Compound I 200 mg/kg, pirfenidone 400 mg/kg, alone or combined, FIG. 8): significantly reduced histological lesions
- visual grading of pulmonary fibrosis (Ashcroft's score) ([4]; oral, Compound I 200 mg/kg, pirfenidone 400 mg/kg, alone or combined, FIG. 11): reduced
- lesions and fibrosis in lungs (photomicrographs stained with HEP) ([4]; oral, Compound I 200 mg/kg, pirfenidone 400 mg/kg, FIG. 10): reduced lesions and fibrosis in lungs
- inflammation level in heart ([5]; intravenous 10 mg/kg three times a week, FIG. 29): significant reduction of inflammation
- necrosis level in heart ([5]; intravenous 10 mg/kg three times a week, FIG. 30): significant reduction of necrosis
- hydroxyproline (collagen) content in heart ([5]; intravenous 10 mg/kg three times a week): significant reduction
- total heart lesions (histological evaluation) ([5]; intravenous 10 mg/kg three times a week, p<0.05, FIG. 28): reduces significantly
- heart fibrosis (blue-colored collagen deposition, Masson's trichrome photomicrographs) ([5]; intravenous, FIG. 34): reduces fibrosis
- hydroxyproline (collagen) content in heart ([5]; oral 200 mg/kg daily): significant reduction
- heart fibrosis (blue-colored collagen deposition, Masson's trichrome photomicrographs) ([5]; oral, FIGS. 32 and 33): reduces fibrosis
- CTGF mRNA expression in lungs ([6]; oral 100 and 200 mg/kg, Example 21, FIG. 4): significantly decreased the expression
- IL-23p19 mRNA expression in lungs ([6]; oral 100 and 200 mg/kg, Example 21, FIG. 5): significantly decreased the expression
- collagen 1 mRNA expression in lungs ([6]; oral 100 and 200 mg/kg, Example 21, FIG. 6): significantly decreased the expression
- TGF-β mRNA expression in lungs ([6]; oral, Compound I 200 mg/kg, pirfenidone 400 mg/kg, alone or combined, FIG. 12): significantly decreased the expression
- CTGF mRNA expression in lungs ([6]; oral, Compound I 200 mg/kg, pirfenidone 400 mg/kg, alone or combined, FIG. 13): significantly decreased the expression
- IL-23 mRNA expression in lungs ([6]; oral, Compound I 200 mg/kg, pirfenidone 400 mg/kg, alone or combined, FIG. 14): significantly decreased the expression
- IL-6 mRNA expression in lungs ([6]; oral, Compound I 200 mg/kg, pirfenidone 400 mg/kg, alone or combined, FIG. 15): significantly decreased the expression
- collagen 3 mRNA expression in lungs ([6]; oral, Compound I 200 mg/kg, pirfenidone 400 mg/kg, alone or combined, FIG. 18): weak reduction
- collagen 1 mRNA expression in lungs ([6]; oral, Compound I 200 mg/kg, pirfenidone 400 mg/kg, alone or combined, reduction to the control level, FIG. 16): significant reduction
- fibronectin (FN-1) mRNA expression in lungs ([6]; oral, Compound I 200 mg/kg, pirfenidone 400 mg/kg, alone or combined, reduction to the control level, FIG. 17): significant reduction
